Measurements taken from PubChem BioAssay (NCI).
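Protocol summary: plate cells (96-well), add compound at 5 concentrations, incubate 48 h, interpolate endpoints linearly. TGI is the concentration that stops growth completely.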

Experiments:
Test in all cases: DTP human tumour cell line panel, 48 h
786-0 renal = tested on: 786-0 renal
A498 renal = tested on: A498 renal
A549 NSCLC = tested on: A549 NSCLC
ACHN renal = tested on: ACHN renal
BT-549 breast = tested on: BT-549 breast
CAKI-1 renal = tested on: CAKI-1 renal
CCRF-CEM leukemia = tested on: CCRF-CEM leukemia
COLO 205 colon = tested on: COLO 205 colon
DU-145 prostate = tested on: DU-145 prostate
EKVX NSCLC = tested on: EKVX NSCLC
HCC-2998 colon = tested on: HCC-2998 colon
HCT-116 colon = tested on: HCT-116 colon
HCT-15 colon = tested on: HCT-15 colon
HL-60(TB) leukemia = tested on: HL-60(TB) leukemia
HOP-62 NSCLC = tested on: HOP-62 NSCLC
HOP-92 NSCLC = tested on: HOP-92 NSCLC
HS 578T breast = tested on: HS 578T breast
HT29 colon = tested on: HT29 colon
IGROV1 ovarian = tested on: IGROV1 ovarian
K-562 leukemia = tested on: K-562 leukemia
KM12 colon = tested on: KM12 colon
LOX IMVI melanoma = tested on: LOX IMVI melanoma
M14 melanoma = tested on: M14 melanoma
MALME-3M melanoma = tested on: MALME-3M melanoma
MCF7 breast = tested on: MCF7 breast
MDA-MB-435 = tested on: MDA-MB-435
MDA-N = tested on: MDA-N
NCI-H226 lung = tested on: NCI-H226 lung
NCI-H23 lung = tested on: NCI-H23 lung
NCI-H460 lung = tested on: NCI-H460 lung
NCI-H522 lung = tested on: NCI-H522 lung
NCI/ADR-RES ovarian = tested on: NCI/ADR-RES ovarian
OVCAR-3 ovarian = tested on: OVCAR-3 ovarian
OVCAR-4 ovarian = tested on: OVCAR-4 ovarian
OVCAR-5 ovarian = tested on: OVCAR-5 ovarian
PC-3 prostate = tested on: PC-3 prostate
RPMI-8226 leukemia = tested on: RPMI-8226 leukemia
RXF 393 renal = tested on: RXF 393 renal
SF-268 CNS = tested on: SF-268 CNS
SF-295 CNS = tested on: SF-295 CNS
SF-539 CNS = tested on: SF-539 CNS
SK-MEL-2 melanoma = tested on: SK-MEL-2 melanoma
SK-MEL-28 melanoma = tested on: SK-MEL-28 melanoma
SK-MEL-5 melanoma = tested on: SK-MEL-5 melanoma
SK-OV-3 ovarian = tested on: SK-OV-3 ovarian
SN12C renal = tested on: SN12C renal
SNB-19 CNS = tested on: SNB-19 CNS
SR leukemia = tested on: SR leukemia
SW-620 colon = tested on: SW-620 colon
T-47D breast = tested on: T-47D breast
TK-10 renal = tested on: TK-10 renal
U251 CNS = tested on: U251 CNS
UACC-257 melanoma = tested on: UACC-257 melanoma
UACC-62 melanoma = tested on: UACC-62 melanoma
UO-31 renal = tested on: UO-31 renal
MDA-MB-231 breast = tested on: MDA-MB-231 breast
MOLT-4 leukemia = tested on: MOLT-4 leukemia
OVCAR-8 ovarian = tested on: OVCAR-8 ovarian
SNB-75 CNS = tested on: SNB-75 CNS

CC(=O)N[C@@H](Cc1ccc(O)cn1)C(=O)NCc1cccc(F)c1
TGI (786-0 renal): > 100 µM | TGI (A498 renal): > 100 µM | TGI (A549 NSCLC): > 100 µM | TGI (ACHN renal): > 100 µM | TGI (BT-549 breast): > 100 µM | TGI (CAKI-1 renal): > 100 µM | TGI (CCRF-CEM leukemia): > 100 µM | TGI (COLO 205 colon): > 100 µM | TGI (DU-145 prostate): > 100 µM | TGI (EKVX NSCLC): > 100 µM | TGI (HCC-2998 colon): > 100 µM | TGI (HCT-116 colon): > 100 µM | TGI (HCT-15 colon): > 100 µM | TGI (HL-60(TB) leukemia): > 100 µM | TGI (HOP-62 NSCLC): > 100 µM | TGI (HOP-92 NSCLC): > 100 µM | TGI (HS 578T breast): > 100 µM | TGI (HT29 colon): > 100 µM | TGI (IGROV1 ovarian): > 100 µM | TGI (K-562 leukemia): > 100 µM | TGI (KM12 colon): > 100 µM | TGI (LOX IMVI melanoma): > 100 µM | TGI (M14 melanoma): > 100 µM | TGI (MALME-3M melanoma): > 100 µM | TGI (MCF7 breast): > 100 µM | TGI (MDA-MB-435): > 100 µM | TGI (MDA-N): > 100 µM | TGI (NCI-H226 lung): > 100 µM | TGI (NCI-H23 lung): > 100 µM | TGI (NCI-H460 lung): > 100 µM | TGI (NCI-H522 lung): > 100 µM | TGI (NCI/ADR-RES ovarian): > 100 µM | TGI (OVCAR-3 ovarian): > 100 µM | TGI (OVCAR-4 ovarian): > 100 µM | TGI (OVCAR-5 ovarian): > 100 µM | TGI (PC-3 prostate): > 100 µM | TGI (RPMI-8226 leukemia): > 100 µM | TGI (RXF 393 renal): > 100 µM | TGI (SF-268 CNS): > 100 µM | TGI (SF-295 CNS): > 100 µM | TGI (SF-539 CNS): > 100 µM | TGI (SK-MEL-2 melanoma): > 100 µM | TGI (SK-MEL-28 melanoma): > 100 µM | TGI (SK-MEL-5 melanoma): > 100 µM | TGI (SK-OV-3 ovarian): > 100 µM | TGI (SN12C renal): > 100 µM | TGI (SNB-19 CNS): > 100 µM | TGI (SR leukemia): > 100 µM | TGI (SW-620 colon): > 100 µM | TGI (T-47D breast): > 100 µM | TGI (TK-10 renal): > 100 µM | TGI (U251 CNS): > 100 µM | TGI (UACC-257 melanoma): > 100 µM | TGI (UACC-62 melanoma): > 100 µM | TGI (UO-31 renal): > 100 µM

N#Cc1[nH]c(=O)n(-c2ccc([N+](=O)[O-])cc2)c1N
TGI (786-0 renal): > 10 µM | TGI (A498 renal): > 10 µM | TGI (A549 NSCLC): > 10 µM | TGI (ACHN renal): > 10 µM | TGI (CCRF-CEM leukemia): > 10 µM | TGI (COLO 205 colon): > 10 µM | TGI (DU-145 prostate): > 10 µM | TGI (EKVX NSCLC): > 10 µM | TGI (HCC-2998 colon): > 10 µM | TGI (HCT-116 colon): > 10 µM | TGI (HCT-15 colon): > 10 µM | TGI (HL-60(TB) leukemia): > 10 µM | TGI (HOP-62 NSCLC): > 10 µM | TGI (HOP-92 NSCLC): > 10 µM | TGI (HS 578T breast): > 10 µM | TGI (HT29 colon): > 10 µM | TGI (IGROV1 ovarian): > 10 µM | TGI (K-562 leukemia): > 10 µM | TGI (LOX IMVI melanoma): > 10 µM | TGI (M14 melanoma): > 10 µM | TGI (MALME-3M melanoma): > 10 µM | TGI (MDA-MB-231 breast): > 10 µM | TGI (MDA-MB-435): > 10 µM | TGI (MDA-N): > 10 µM | TGI (MOLT-4 leukemia): > 10 µM | TGI (NCI-H226 lung): > 10 µM | TGI (NCI-H23 lung): > 10 µM | TGI (NCI-H460 lung): > 10 µM | TGI (NCI-H522 lung): > 10 µM | TGI (NCI/ADR-RES ovarian): > 10 µM | TGI (OVCAR-3 ovarian): > 10 µM | TGI (OVCAR-4 ovarian): > 10 µM | TGI (OVCAR-5 ovarian): > 10 µM | TGI (OVCAR-8 ovarian): > 10 µM | TGI (PC-3 prostate): > 10 µM | TGI (RPMI-8226 leukemia): > 10 µM | TGI (RXF 393 renal): > 10 µM | TGI (SF-268 CNS): > 10 µM | TGI (SF-295 CNS): > 10 µM | TGI (SF-539 CNS): > 10 µM | TGI (SK-MEL-2 melanoma): > 10 µM | TGI (SK-MEL-28 melanoma): > 10 µM | TGI (SK-MEL-5 melanoma): > 10 µM | TGI (SK-OV-3 ovarian): > 10 µM | TGI (SN12C renal): > 10 µM | TGI (SNB-19 CNS): > 10 µM | TGI (SNB-75 CNS): > 10 µM | TGI (SR leukemia): > 10 µM | TGI (SW-620 colon): > 10 µM | TGI (T-47D breast): > 10 µM | TGI (TK-10 renal): > 10 µM | TGI (U251 CNS): > 10 µM | TGI (UACC-257 melanoma): > 10 µM | TGI (UACC-62 melanoma): > 10 µM | TGI (UO-31 renal): > 10 µM
